Experimental data: BindingDB's records for aid1799744 (Csar, 2012)

Target: Mitogen-activated protein kinase 1 (Homo sapiens, UniProt P28482)
Assay: Assay 1

Chain of Mitogen-activated protein kinase 1 (P28482 whole entry): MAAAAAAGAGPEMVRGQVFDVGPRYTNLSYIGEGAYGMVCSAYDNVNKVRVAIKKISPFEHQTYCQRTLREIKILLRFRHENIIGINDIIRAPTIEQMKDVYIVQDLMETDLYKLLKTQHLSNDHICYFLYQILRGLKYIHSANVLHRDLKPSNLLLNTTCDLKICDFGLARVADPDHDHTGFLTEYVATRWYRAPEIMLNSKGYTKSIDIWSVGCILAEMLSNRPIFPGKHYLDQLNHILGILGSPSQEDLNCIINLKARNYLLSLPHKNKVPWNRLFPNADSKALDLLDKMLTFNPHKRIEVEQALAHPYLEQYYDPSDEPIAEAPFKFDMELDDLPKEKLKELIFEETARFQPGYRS

| Structure (SMILES) | Ki [nM] |
| --- | --- |
| CCOC(=O)OC[C@H](CC)Nc1ncc(C)c(-c2c[nH]c(C(=O)N[C@H](CO)c3cccc(Cl)c3)c2)n1 [erk000669] | 27 |
| O=C(N[C@H](CO)c1cccc(Cl)c1)c1cc(-c2ncnc(Nc3ccccc3)n2)c[nH]1 [erk000671] | 2 |
| CC[C@@H](CO)Nc1cc(-c2c[nH]c(C(=O)N[C@H](CO)c3cccc(Cl)c3)c2)ncn1 [erk000673] | 18 |
| Cc1cnc(N[C@@H](CO)CC(F)(F)F)nc1-c1c[nH]c(C(=O)N[C@H](CO)c2cccc(Cl)c2)c1 [erk000675] | 8 |
| CCOP(=O)(OCC)OC[C@H](CC)Nc1ncc(C)c(-c2c[nH]c(C(=O)N[C@H](COP(=O)(OCC)OCC)c3cccc(Cl)c3)c2)n1 [erk000676] | 1070 |
| Cc1cnc(N[C@@H](C)COC(=O)C(C)C)nc1-c1c[nH]c(C(=O)N[C@H](COC(=O)C(C)C)c2cccc(Cl)c2)c1 [erk000677] | 1320 |
| CCn1cc(-c2nc(N[C@@H](C)CO)ncc2C)cc1C(=O)N[C@H](CO)c1cccc(Cl)c1 [erk000679] | 5 |
| CCn1cc(-c2nc(NCC(F)(F)F)ncc2C)cc1C(=O)N[C@H](CO)c1cccc(Cl)c1 [erk000680] | 34 |
| CC[C@@H](COC(=O)C(C)C)Nc1ncc(C)c(-c2c[nH]c(C(=O)N[C@H](CO)c3cccc(Cl)c3)c2)n1 [erk000689] | 15 |
| CCOP(=O)(OCC)OC[C@H](CC)Nc1ncc(C)c(-c2c[nH]c(C(=O)N[C@H](CO)c3cccc(Cl)c3)c2)n1 [erk000690] | 1100 |
| Cc1cnc(N)nc1-c1c[nH]c(C(=O)N[C@H](CO)c2cccc(Cl)c2)c1 [erk000691] | 15 |
| Cc1cnc(NCC(F)(F)F)nc1-c1cc(C(=O)N[C@H](CO)c2cccc(Cl)c2)n(C)c1 [erk000692] | 6 |
| CC[C@@H](CO)Nc1ncc(C)c(-c2cc(C(=O)N[C@H](CO)c3cccc(Cl)c3)n(COC)c2)n1 [erk000694] | 5 |
| CC[C@@H](COC(=O)C(C)C)Nc1ncc(Cl)c(-c2c[nH]c(C(=O)N[C@H](COC(=O)C(C)C)c3ccccc3)c2)n1 [erk000696] | 151 |
| CC[C@@H](CO)Nc1ncc(F)c(-c2c[nH]c(C(=O)N[C@H](CO)c3cccc(Cl)c3)c2)n1 [erk000697] | 3 |
| CC[C@@H](COC(=O)COCCOC)Nc1ncc(C)c(-c2c[nH]c(C(=O)N[C@H](CO)c3cccc(Cl)c3)c2)n1 [erk000698] | 17 |

| Structure (SMILES) | Ki [nM] |
| --- | --- |
| CC[C@@H](COC(=O)COCCOCCOC)Nc1ncc(C)c(-c2c[nH]c(C(=O)N[C@H](CO)c3cccc(Cl)c3)c2)n1 [erk000699] | 13 |
| CCONc1ncc(C)c(-c2cc(C(=O)N[C@H](CO)c3cccc(Cl)c3)n(C)c2)n1 [erk000701] | 13 |
| CC[C@@H](COC(=O)C(C)(C)C)Nc1ncc(C)c(-c2c[nH]c(C(=O)N[C@H](CO)c3cccc(Cl)c3)c2)n1 [erk000702] | 55 |
| CCOC(=O)N1CCC(Nc2ncc(Cl)c(-c3c[nH]c(C(=O)N[C@H](CO)c4cccc(Cl)c4)c3)n2)CC1 [erk000703] | 7 |
| CCONc1ncc(Cl)c(-c2c[nH]c(C(=O)N[C@H](CO)c3cccc(C)c3)c2)n1 [erk000705] | 4 |
| Cc1cnc(N[C@@H](C)CO)nc1-c1cc(C(=O)N[C@H](CO)c2ccccc2)n(C)c1 [erk000706] | 6 |
| CC(C)Nc1ncc(Cl)c(-c2c[nH]c(C(=O)N(C)[C@H](CO)c3ccccc3)c2)n1 [erk000708] | 6 |
| CC[C@@H](CO)Nc1ncc(Cl)c(N2CCN(C(=O)N[C@H](CO)c3cccc(Cl)c3)CC2)n1 [erk000711] | 38 |
| Fc1cccc(-c2cnoc2-c2c[nH]c3ncc(-c4ccncc4)cc23)c1F [erk000712] | 191 |
| CC[C@@H](COC(=O)CCC(=O)O)Nc1ncc(C)c(-c2c[nH]c(C(=O)N[C@H](COC(=O)CCC(=O)O)c3cccc(Cl)c3)c2)n1 [erk000713] | 117 |
| CC[C@@H](COC(=O)[C@@H](NC)C(C)C)Nc1ncc(C)c(-c2c[nH]c(C(=O)N[C@H](COC(=O)[C@@H](NC)C(C)C)c3cccc(Cl)c3)c2)n1 [erk000715] | 1910 |
| CC[C@@H](COC(=O)[C@H](C)N)Nc1ncc(C)c(-c2c[nH]c(C(=O)N[C@H](COC(=O)[C@H](C)N)c3cccc(Cl)c3)c2)n1 [erk000717] | 38 |
| CC[C@@H](COC(=O)[C@H](CC(C)C)NC)Nc1ncc(C)c(-c2c[nH]c(C(=O)N[C@H](COC(=O)[C@H](CC(C)C)NC)c3cccc(Cl)c3)c2)n1 [erk000719] | 525 |
| CC[C@@H](COC(=O)C(C)(C)N)Nc1ncc(C)c(-c2c[nH]c(C(=O)N[C@H](COC(=O)C(C)(C)N)c3cccc(Cl)c3)c2)n1 [erk000720] | 200 |
| CC[C@@H](CO)Nc1ncc(C)c(-c2c[nH]c(C(=O)N[C@H](COP(=O)(O)O)c3cccc(Cl)c3)c2)n1 [erk000721] | 4 |
| CC[C@@H](COP(=O)(O)O)Nc1ncc(C)c(-c2c[nH]c(C(=O)N[C@H](CO)c3cccc(Cl)c3)c2)n1 [erk000722] | 417 |

Continued by falling Ki, values first:

| Ki [nM] | Structure (SMILES) |
| --- | --- |
| 759 | CC[C@@H](COC(=O)[C@@H](N)C(C)C)Nc1ncc(C)c(-c2c[nH]c(C(=O)N[C@H](COC(=O)[C@@H](N)C(C)C)c3cccc(Cl)c3)c2)n1 [erk000685] |
| 427 | CC[C@@H](COC(=O)COCCOC)Nc1ncc(C)c(-c2c[nH]c(C(=O)N[C@H](COC(=O)COCCOC)c3cccc(Cl)c3)c2)n1 [erk000716] |
| 407 | C[C@@H]1CCN(C(=O)CC#N)C[C@@H]1N(C)c1nc(Nc2ccc(N3CCOCC3)cc2)nc2[nH]cnc12 [erk000723] |
| 331 | CC(=O)OC[C@H](C)Nc1ncc(C)c(-c2c[nH]c(C(=O)N[C@H](COC(C)=O)c3cccc(Cl)c3)c2)n1 [erk000682] |
| 257 | CC[C@@H](COC(=O)CCC(=O)N1CCOCC1)Nc1ncc(C)c(-c2c[nH]c(C(=O)N[C@H](COC(=O)CCC(=O)N3CCOCC3)c3cccc(Cl)c3)c2)n1 [erk000718] |
| 158 | CC[C@@H](COC(=O)OC(C)C)Nc1ncc(C)c(-c2c[nH]c(C(=O)N[C@H](CO)c3cccc(Cl)c3)c2)n1 [erk000684] |
| 37 | CC[C@@H](CO)Nc1ncc(C)c(-c2c[nH]c(C(=O)N[C@H](COC(=O)OC(C)C)c3cccc(Cl)c3)c2)n1 [erk000693] |
| 30 | CC(C)Nc1cc(-c2c[nH]c(C(=O)N[C@H](CO)c3cccc(Cl)c3)c2)ncn1 [erk000672] |
| 30 | CC[C@@H](COC(=O)[C@@H](N)C(C)(C)C)Nc1ncc(C)c(-c2c[nH]c(C(=O)N[C@H](COC(=O)[C@@H](N)C(C)(C)C)c3cccc(Cl)c3)c2)n1 [erk000714] |
| 9 | Cc1[nH]c(C(=O)N[C@H](CO)c2cccc(Cl)c2)c(C)c1-c1ccnc(Nc2ccc(F)cc2Cl)n1 [erk000700] |
| 4 | CC[C@@H](CO)Nc1ncc(C)c(-c2cc(C(=O)N[C@H](CO)c3cccc(Cl)c3)n(CC)c2)n1 [erk000678] |
| 4 | CC[C@@H](CO)Nc1ncc(Cl)c(-c2cc(C(=O)N[C@H](CO)c3ccccc3)n(C)c2)n1 [erk000710] |
| 3 | Cc1cnc(N[C@H]2CCOC2)nc1-c1cc(C(=O)N[C@H](CO)c2ccccc2)n(C)c1 [erk000704] |
| 2 | CC[C@@H](CO)Nc1ncc(C)c(-c2c[nH]c(C(=O)N(C)[C@H](CO)c3cccc(Cl)c3)c2)n1 [erk000709] |
